# Data published in ChEMBL document CHEMBL1136837, “Unified QSAR approach to antimicrobials. 4. Multi-target QSAR modeling and comparative multi-distance study of the giant components of antiviral drug-drug complex networks” (Bioorg Med Chem, 2009).
# pIC50: −log10 of the molar value.
# Tested on: Human immunodeficiency virus 1
# Test: Antiviral activity against HIV1
# Assay type: functional, organism-based
# Conditions: not given
row,pIC50,Structure (SMILES)
1,6.40,Fc1cccc(F)c1Cn1c(-c2c(F)cccc2F)nc2c(Cl)cccc21
2,6.43,NC(=O)c1cccc2c1nc(-c1c(F)cccc1F)n2Cc1c(F)cccc1F
3,4.95,CC1(C)Oc2ccc3cc(CBr)c(=O)oc3c2[C@@H](OC(=O)[C@@]23CC[C@](C)(C(=O)O2)C3(C)C)[C@H]1OC(=O)[C@@]12CC[C@](C)(C(=O)O1)C2(C)C
4,4.94,CC(=O)OCc1cc2ccc3c(c2oc1=O)[C@@H](OC(=O)[C@@]12CC[C@](C)(C(=O)O1)C2(C)C)[C@@H](OC(=O)[C@@]12CC[C@](C)(C(=O)O1)C2(C)C)C(C)(C)O3
5,4.64,CC1(C)Oc2ccc3cc(CO)c(=O)oc3c2[C@@H](OC(=O)[C@@]23CC[C@](C)(C(=O)O2)C3(C)C)[C@H]1OC(=O)[C@@]12CC[C@](C)(C(=O)O1)C2(C)C
6,5.57,COc1ccc(F)cc1-c1nc2c(N)cccc2n1Cc1c(F)cccc1F
7,7.22,Fc1cccc(F)c1Cn1c(-c2ccccc2)nc2ccccc21
8,5.77,Fc1cccc(F)c1Cn1c(-c2c(F)cccc2F)nc2ccccc21
9,7.00,O=Cc1cccc2c1nc(-c1c(F)cccc1F)n2Cc1c(F)cccc1F
10,6.72,O=C(/C=C/c1ccc(O)c(O)c1)NCC(OC(=O)/C=C/c1ccc(O)c(O)c1)C(=O)O (racemic)
11,5.37,O=C(NNC(=O)c1ccccc1S)c1ccccc1S [BIS(THIOSALICYL)HYDRAZIDE]
12,6.60,C#C[C@@]1(CO)C=C[C@H](n2cc(C)c(=O)[nH]c2=O)O1 [CENSAVUDINE]
13,4.79,CC1(C)Oc2ccc3ccc(=O)oc3c2[C@@H](OC(=O)[C@@]23CC[C@](C)(C(=O)O2)C3(C)C)[C@H]1OC(=O)[C@@]12CC[C@](C)(C(=O)O1)C2(C)C [DCK]
14,5.27,CC(C)Nc1cccnc1N1CCN(C(=O)c2cc3cc(NS(C)(=O)=O)ccc3[nH]2)CC1 [DELAVIRDINE]
15,5.70,NC(=O)c1[nH]c2ccc(Cl)cc2c1S(=O)(=O)c1ccccc1 [L-737126]
16,9.40,Cc1cc(/C=C/C#N)cc(C)c1Nc1ccnc(Nc2ccc(C#N)cc2)n1 [RILPIVIRINE]
17,9.28,COC[C@@H](c1ccc(C(F)(F)F)cc1)N1CCN(C2(C)CCN(C(=O)c3c(C)ncnc3C)CC2)C[C@@H]1C [VICRIVIROC]

row,Structure (SMILES),pIC50
1,CCCCOC(=O)c1cc2c([nH]c3ccccc32)c(-c2ccc3c(n2)C(=O)C(NC(=O)CCC)=CC3=O)n1 [LAV12],5.24
2,Cc1cccc(C)c1OCC(=O)N[C@@H](Cc1ccccc1)[C@@H](O)C[C@H](Cc1ccccc1)NC(=O)[C@H](C(C)C)N1CCCNC1=O [LOPINAVIR],7.47
3,Cc1ccnc2c1NC(=O)c1cccnc1N2C1CC1 [NEVIRAPINE],7.22
4,COC(=O)C(C)NP(=O)(OC[C@@H]1C=C[C@H](n2cc(C)c(=O)[nH]c2=O)O1)Oc1ccc(Br)cc1 (stereo partly drawn) [STAMPIDINE],8.52

# Tested on: Hepatitis C virus
# Test: Antiviral activity against Hepatitis C virus
# Assay type: functional, organism-based, Hepacivirus hominis
# Conditions: Hepatitis C virus
row,pIC50,Structure (SMILES)
1,4.33,CCc1ccc(C(=O)CC(=O)C(=O)O)cc1
2,4.30,Cc1ccc(C(=O)CC(=O)C(=O)O)cc1
3,6.46,N#CCCCOc1ccccc1C(=O)CC(=O)C(=O)O
4,4.80,O=C(O)C(=O)CC(=O)c1cccc(NS(=O)(=O)c2ccccc2)c1
5,4.28,CC(=O)N[C@H](C(=O)N[C@H](C(=O)N1C[C@H](Oc2cccc(Br)c2)C[C@H]1C(=O)NC1(C(=O)O)CC1)C(C)C)C1CCCCC1
6,5.00,CCCCOc1ccccc1C(=O)CC(=O)C(=O)O
7,4.30,COC(=O)C(=O)CC(=O)c1ccccc1
8,4.30,CC(C)(C)c1ccc(C(=O)CC(=O)C(=O)O)cc1
9,4.30,O=C(CC(O)C(=O)O)c1ccccc1 (stereo not drawn)
10,4.30,CC(C)(C)C(=O)CC(=O)C(=O)O
11,5.24,O=C(O)C(=O)CC(=O)c1ccccc1
12,6.24,CCCC1(CC(=O)O)OCCc2c1[nH]c1c(C)ccc(C#N)c21 (stereo not drawn)
13,4.52,CCCC1(CC(=O)OCC)OCCc2c1[nH]c1c(C)ccc(C#N)c21 (stereo not drawn)
14,7.10,CCC[C@]1(CC(=O)O)OCCc2c1[nH]c1c(C)cc(F)c(C#N)c21
15,4.52,CCc1ccc(Cl)c2[nH]c3c(c12)CCOC3(CC)CC(=O)O (stereo not drawn)
16,5.77,O=C(O)[C@H](Cc1ccccc1)N(Cc1cccc(C(F)(F)F)c1)C(=O)c1ccc(Cl)cc1Cl
17,5.74,Cc1cccc(CN(C(=O)c2ccc(Cl)cc2Cl)[C@@H](Cc2ccccc2)C(=O)O)c1
18,5.49,O=C(O)[C@H](Cc1ccccc1)N(Cc1cccc(F)c1)C(=O)c1ccc(Cl)cc1Cl
19,4.05,CC(=O)N[C@H](C(=O)N[C@H](C(=O)N1C[C@H](OCc2cccc3ccccc23)C[C@H]1C(=O)N[C@@]1(C(=O)O)C[C@@H]1CCc1ccccc1)C(C)C)C1CCCCC1
20,5.40,CC(=O)N[C@H](C(=O)N[C@H](C(=O)N1C[C@H](Oc2cccc(-c3cccc([N+](=O)[O-])c3)c2)C[C@H]1C(=O)NC1(C(=O)O)CC1)C(C)C)C1CCCCC1
21,4.36,O=C(O)C(=O)CC(=O)c1ccccc1OCc1ccccc1

row,pIC50,Structure (SMILES)
1,6.92,CCCC1(CC(=O)O)OCCc2c1[nH]c1c(C)cc(F)c(C#N)c21 (stereo not drawn)
2,6.48,CCC[C@]1(CC(=O)O)OCCc2c1[nH]c1c(C)ccc(C#N)c21
3,5.85,O=C(O)[C@H](Cc1ccccc1)N(Cc1cccc(Cl)c1)C(=O)c1ccc(Cl)cc1Cl
4,4.09,CC(=O)N[C@H](C(=O)N[C@H](C(=O)N1C[C@H](OCc2cccc3ccccc23)C[C@H]1C(=O)N[C@@]1(C(=O)O)C[C@@H]1Cc1ccccc1)C(C)C)C1CCCCC1
5,6.96,N#Cc1c(Cl)cccc1COc1cccc(C(=O)/C=C(\O)C(=O)O)c1
6,5.70,CC(C)COC(=O)N[C@@H](CCC(=O)O)C(=O)N[C@@H](CC(C)C)C(=O)N[C@@H](CS)C(=O)NCCc1ccc(C(=O)O)cc1
7,4.27,COC(=O)c1ccccc1CCNC(=O)[C@H](CS)NC(=O)[C@H](CC(C)C)NC(=O)[C@H](CCC(=O)O)NC(=O)OCC(C)C
8,4.60,COC(=O)c1cccc(CCNC(=O)[C@H](CS)NC(=O)[C@H](CC(C)C)NC(=O)[C@H](CCC(=O)O)NC(=O)OCC(C)C)c1
9,4.30,CC(=O)CC(=O)C(=O)O
10,7.00,N#Cc1ccc(Br)cc1COc1cccc(C(=O)/C=C(\O)C(=O)O)c1
11,5.62,CCC[C@@]1(CC(=O)O)OCCc2c1[nH]c1c(C)ccc(C#N)c21
12,7.35,N#Cc1c(Cl)cc(Cl)cc1COc1cccc(C(=O)/C=C(\O)C(=O)O)c1
13,4.30,O=C(CC(=O)C(=O)O)Cc1ccncc1
14,4.30,O=C(CC(=O)C(=O)O)Cc1ccco1
15,4.82,CCC[C@@]1(CC(=O)O)OCCc2c1[nH]c1c(Cl)ccc(CC)c21
16,6.20,CCC[C@@]1(CC(=O)O)OCCc2c1[nH]c1c(C)cc(F)c(C#N)c21
17,6.92,CC[C@@H]1C[C@]1(NC(=O)[C@@H]1C[C@@H](Oc2cccc(-c3ccccc3)c2)CN1C(=O)[C@@H](NC(=O)[C@@H](NC(C)=O)C1CCCCC1)C(C)C)C(=O)O
18,6.64,N#Cc1ccccc1COc1cccc(C(=O)/C=C(\O)C(=O)O)c1
19,4.72,CC(C)COC(=O)N[C@@H](CCC(=O)O)C(=O)N[C@@H](CC(C)C)C(=O)N[C@@H](CS)C(=O)NCCc1ccccc1
20,3.19,CC(=O)N[C@H](C(=O)N[C@H](C(=O)N1C[C@H](OCc2cccc3ccccc23)C[C@H]1C(=O)N[C@@]1(C(=O)O)C[C@@H]1C(C)C)C(C)C)C1CCCCC1
21,3.74,CC(=O)N[C@H](C(=O)N[C@H](C(=O)N1C[C@H](OCc2cccc3ccccc23)C[C@H]1C(=O)N[C@@]1(C(=O)O)C[C@@H]1C)C(C)C)C1CCCCC1
